Measurements as given in patent US20100081690A1, “OXAZOLE DERIVATIVES AS POSITIVE ALLOSTERIC MODULATORS OF METABOTROPIC GLUTAMATE RECEPTORS” (ADDEX PHARMA SA, priority 2006, published 2010).

Assays:
rat mGluR5 = biological target: T1, rat mGluR5 (Rattus norvegicus, UniProt P31424); test: mGluR5 assay on HEK-expressing rat mGluR5 (fluorescent cell based Ca2+ mobilization); conditions: for EC50: HEK-293 cells stably expressing rat mGluR5, no co-addition of glutamate, mean of at least three independent experiments in duplicate, read-out: Ca2+ Flux (mean EC50); for activation of rat mGluR5 receptors: HEK-rat mGluR5 cell line, without co-addition of glutamate or mGluR5 agonist
T1 construct: expressed in transfected cells
T1 sequence (P31424 21-1171 isoform P31424-2 limits assumed): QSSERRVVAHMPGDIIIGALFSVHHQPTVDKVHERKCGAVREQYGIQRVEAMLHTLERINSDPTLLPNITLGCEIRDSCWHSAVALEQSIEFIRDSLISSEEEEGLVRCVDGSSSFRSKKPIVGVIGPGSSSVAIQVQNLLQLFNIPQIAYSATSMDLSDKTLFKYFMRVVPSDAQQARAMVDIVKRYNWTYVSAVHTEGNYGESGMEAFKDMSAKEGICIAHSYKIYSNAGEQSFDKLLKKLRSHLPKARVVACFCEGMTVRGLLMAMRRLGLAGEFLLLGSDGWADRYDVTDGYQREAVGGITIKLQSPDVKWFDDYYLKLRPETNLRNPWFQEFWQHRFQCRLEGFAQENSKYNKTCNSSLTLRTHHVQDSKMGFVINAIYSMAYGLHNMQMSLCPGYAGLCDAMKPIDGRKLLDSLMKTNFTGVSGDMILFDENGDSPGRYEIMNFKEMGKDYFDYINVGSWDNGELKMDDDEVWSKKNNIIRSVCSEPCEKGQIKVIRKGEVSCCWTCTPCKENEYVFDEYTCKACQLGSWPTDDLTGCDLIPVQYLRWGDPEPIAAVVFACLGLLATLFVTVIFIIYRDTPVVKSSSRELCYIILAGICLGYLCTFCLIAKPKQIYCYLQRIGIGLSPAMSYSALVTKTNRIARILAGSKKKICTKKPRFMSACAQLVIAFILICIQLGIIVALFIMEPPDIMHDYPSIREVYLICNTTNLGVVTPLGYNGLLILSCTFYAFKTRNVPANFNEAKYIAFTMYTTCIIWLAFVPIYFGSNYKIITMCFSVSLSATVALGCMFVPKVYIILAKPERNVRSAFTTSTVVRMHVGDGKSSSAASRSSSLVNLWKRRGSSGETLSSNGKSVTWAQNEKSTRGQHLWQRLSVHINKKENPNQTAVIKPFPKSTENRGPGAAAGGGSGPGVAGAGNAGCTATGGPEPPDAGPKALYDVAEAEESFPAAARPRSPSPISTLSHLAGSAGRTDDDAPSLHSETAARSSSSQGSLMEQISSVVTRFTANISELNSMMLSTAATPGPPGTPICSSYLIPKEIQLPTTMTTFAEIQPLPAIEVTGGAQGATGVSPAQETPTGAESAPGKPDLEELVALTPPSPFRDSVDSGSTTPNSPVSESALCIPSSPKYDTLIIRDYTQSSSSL
Description: Positive functional expression of HEK-293 cells stably expressing rat mGluR5 receptor was determined by measuring intracellular Ca^2+ changes using a Fluorometric Imaging Plate Reader (FLIPR, Molecular Devices, Sunnyvale, Calif.) in response to glutamate or selective known mGluR5 agonists and antagonists. Rat mGluR5RT-PCR products in HEK-293 cells were sequenced and found 100% identical to rat mGluR5Genbank reference sequence (NM_017012). HEK-293 cells expressing rmGluR5 were maintained in media containing DMEM, dialyzed Fetal Bovine Serum (10%), Glutamax™ (2 mM), Penicillin (100 units/ml), Streptomycin (100 μg/ml), Geneticin (100 μg/ml) and Hygromycin-B (40 μg/ml) at 37° C./5% CO2.
After one day of incubation, cells were washed with assay buffer containing: 142 mM NaCl, 6 mM KCl, 1 mM […], 1 mM CaCl2, 20 mM HEPES, 1 g/L glucose, 0.125 mM sulfinpyrazone, pH 7.4. After 60 min of loading with 4 uM Fluo-4 (TefLabs, Austin, Tex.), the cells were washed three times with 50 μl of PBS Buffer and resuspended in 45 μl of assay Buffer. The plates were then transferred to a Fluorometric Imaging Plate Reader (FLIPR, Molecular Devices, Sunnyvale, Calif.) for the assessment of intracellular calcium flux. After monitoring the baseline fluorescence for 10 seconds, increasing concentrations of representative compound (from 0.01 to 60 μM) of the present invention diluted in Assay Buffer (15 μl of 4× dilutions) was added to the cell. The final DMSO concentration in the assay was 0.3%. In each experiment, fluorescence was then monitored as a function of time for 3 minutes and the data analyzed using Microsoft Excel and GraphPad Prism. Each data point was also measured two times.
Under these experimental conditions, this HEK-rat mGluR5 cell line is able to directly detect positive allosteric modulators without the need of co-addition of glutamate or mGluR5 agonist.
The concentration-response curves of representative compounds of the present invention were generated using the Prism GraphPad software (Graph Pad Inc, San Diego, USA). The curves were fitted to a four-parameter logistic equation:
(Y=Bottom+(Top-Bottom)/(1+10̂((Log EC50−X)*Hill Slope)
allowing determination of EC50 values.
The Table 1 below represents the mean EC50 obtained from at least three independent experiments of selected molecules performed in duplicate.

mGluR5 = biological target: T2, mGluR5 (Rattus norvegicus, UniProt P31424); conditions: Liu et al (2006), Zhang et al (2005); cited from earlier work
T2 construct: positive allosteric modulators of mGluR5 receptors in native preparations; endogenous in cells; host or cells: primary cortical astrocytes from Sprague-Dawley rat embryos (E16-19)
T2 sequence (P31424 21-1203): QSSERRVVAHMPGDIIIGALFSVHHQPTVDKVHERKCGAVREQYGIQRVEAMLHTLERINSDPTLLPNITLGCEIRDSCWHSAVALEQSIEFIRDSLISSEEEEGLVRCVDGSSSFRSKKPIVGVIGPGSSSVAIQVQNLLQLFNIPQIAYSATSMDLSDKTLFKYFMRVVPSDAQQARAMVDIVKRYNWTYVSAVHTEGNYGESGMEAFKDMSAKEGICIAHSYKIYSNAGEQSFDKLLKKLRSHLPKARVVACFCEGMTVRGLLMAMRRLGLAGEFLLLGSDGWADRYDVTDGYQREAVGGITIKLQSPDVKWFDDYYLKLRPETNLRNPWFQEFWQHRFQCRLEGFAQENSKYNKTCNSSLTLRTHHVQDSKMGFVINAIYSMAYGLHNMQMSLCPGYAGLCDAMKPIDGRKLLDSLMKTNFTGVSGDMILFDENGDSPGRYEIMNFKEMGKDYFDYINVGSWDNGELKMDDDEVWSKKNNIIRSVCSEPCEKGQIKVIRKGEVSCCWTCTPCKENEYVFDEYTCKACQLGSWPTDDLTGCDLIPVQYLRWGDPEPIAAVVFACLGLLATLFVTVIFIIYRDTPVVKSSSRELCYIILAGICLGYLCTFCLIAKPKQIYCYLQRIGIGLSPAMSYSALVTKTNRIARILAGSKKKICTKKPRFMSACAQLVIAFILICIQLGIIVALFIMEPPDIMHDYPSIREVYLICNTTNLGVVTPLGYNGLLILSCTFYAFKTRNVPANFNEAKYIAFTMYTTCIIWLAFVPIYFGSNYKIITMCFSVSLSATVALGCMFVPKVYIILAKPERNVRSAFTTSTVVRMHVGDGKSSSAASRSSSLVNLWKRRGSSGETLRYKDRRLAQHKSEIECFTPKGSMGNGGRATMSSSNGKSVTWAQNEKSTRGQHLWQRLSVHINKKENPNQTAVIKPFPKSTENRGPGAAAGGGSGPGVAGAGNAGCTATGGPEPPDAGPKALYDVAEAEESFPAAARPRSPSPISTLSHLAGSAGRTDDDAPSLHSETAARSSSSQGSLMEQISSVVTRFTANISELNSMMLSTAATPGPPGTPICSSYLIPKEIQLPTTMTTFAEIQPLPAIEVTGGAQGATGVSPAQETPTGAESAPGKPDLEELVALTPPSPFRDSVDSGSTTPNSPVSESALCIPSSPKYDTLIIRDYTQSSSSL

Row | SMILES | EC50 (rat mGluR5) [nM] | other results
1 | Fc1cccc(/C=N/N=C/c2cccc(F)c2)c1 [DFB, reference compound] | – | activity in rat cortical astrocytes culture in the absence of added glutamate (mGluR5): inactive; activation of rat mGluR5 receptors (rat mGluR5): activating
2 | N#Cc1cccc(C(=O)Nc2cc(-c3ccccc3)nn2-c2ccccc2)c1 [CDPPB, reference compound] | – | activity in rat cortical astrocytes culture in the absence of added glutamate (mGluR5): inactive; activation of rat mGluR5 receptors (rat mGluR5): activating
3 | O=C(c1ccnc(F)c1)N1CCC[C@H](c2nc(-c3ccc(F)cc3)co2)C1 [Example 5, (2-Fluoro-pyridin-4-yl)-{(S)-3-[4-(4-fluoro-phenyl)-oxazol-2-yl]-piperidin-1-yl}-methanone] | < 1000 | –
4 | O=C(c1ccc(F)cc1)N1CCC[C@H](c2nc(-c3ccc(F)cc3F)co2)C1 [Example 14, (S)-(3-(4-(2,4-Difluoro-phenyl)-oxazol-2-yl)-piperidin-1-yl)(4-fluoro-phenyl)-methanone] | < 1000 | –
5 | O=C(c1ccc(F)cc1)N1CCC[C@H](c2nc(-c3ccccc3F)co2)C1 [Example 11, (S)-(4-Fluoro-phenyl)(3-(4-(2-fluoro-phenyl)-oxazol-2-yl)-piperidin-1-yl)-methanone] | < 1000 | –
6 | O=C(c1ccc(F)nc1)N1CCC[C@H](c2nc(-c3ccccc3F)co2)C1 [Example 12, (S)-(3-(4-(2-Fluoro-phenyl)-oxazol-2-yl)-piperidin-1-yl)(6-fluoro-pyridin-3-yl)-methanone] | < 1000 | –
7 | O=C(Nc1ccc(Cl)cc1CN1C(=O)c2ccccc2C1=O)c1ccccc1O [CPPHA, reference compound] | – | activity in rat cortical astrocytes culture in the absence of added glutamate (mGluR5): inactive; activation of rat mGluR5 receptors (rat mGluR5): activating
8 | O=C(c1ccc(F)nc1)N1CCC[C@H](c2nc(-c3ccc(F)cc3)co2)C1 [Example 4, (6-Fluoro-pyridin-3-yl)-{(S)-3-[4-(4-fluoro-phenyl)-oxazol-2-yl]-piperidin-1-yl}-methanone] | < 1000 | –
9 | O=C(c1ccc(F)nc1)N1CCC[C@H](c2nc(-c3ccc(F)cc3F)co2)C1 [Example 15, (S)-(3-(4-(2,4-Difluoro-phenyl)-oxazol-2-yl)-piperidin-1-yl)(6-fluoro-pyridin-3-yl)-methanone] | 1000 to 10000 | –
10 | O=C(c1ccc(F)c(F)c1)N1CCC[C@H](c2nc(-c3ccccn3)co2)C1 [Example 9, (S)-(3,4-Difluoro-phenyl)(3-(4-(pyridin-2-yl)-oxazol-2-yl)-piperidin-1-yl)-methanone] | < 1000 | –

The next lines start with results.

Row | EC50 (rat mGluR5) [nM] | SMILES | other results
11 | < 1000 | O=C(c1ccc(F)nc1)N1CCC[C@H](c2nc(-c3cc(F)c[nH]3)co2)C1 [Example 2, (6-Fluoro-pyridin-3-yl)-{(S)-3-[4-(4-fluoro-1H-pyrrol-2-yl)-oxazol-2-yl]-piperidin-1-yl}-methanone] | melting point: 123 °C
12 | < 1000 | O=C(c1ccncc1F)N1CCC[C@H](c2nc(-c3ccc(F)cc3)co2)C1 [Example 6, (3-Fluoro-pyridin-4-yl)-{(S)-3-[4-(4-fluoro-phenyl)-oxazol-2-yl]-piperidin-1-yl}-methanone] | –
13 | < 1000 | O=C(c1ccnc(F)c1)N1CCC[C@H](c2nc(-c3ccc(F)cc3F)co2)C1 [Example 16, (S)-(3-(4-(2,4-Difluoro-phenyl)-oxazol-2-yl)-piperidin-1-yl)(2-fluoro-pyridin-4-yl)-methanone] | –
14 | < 1000 | Cc1oncc1C(=O)N1CCC[C@H](c2nc(-c3ccc(F)cc3)co2)C1 [Example 7, (S)-(3-(4-(4-Fluoro-phenyl)-oxazol-2-yl)-piperidin-1-yl)(5-methyl-isoxazol-4-yl)-methanone] | –
15 | < 1000 | O=C(c1ccc(F)cc1)N1CCC[C@H](c2nc(-c3ccc(F)cc3)co2)C1 [Example 3, (4-Fluoro-phenyl)-{(S)-3-[4-(4-fluorophenyl)-oxazol-2-yl]-piperidin-1-yl}-methanone] | –
16 | < 1000 | O=C(c1ccc(F)cc1)N1CCC[C@H](c2nc(-c3ccc(F)cn3)co2)C1 [Example 10, (S)-(4-Fluoro-phenyl)(3-(4-(5-fluoro-pyridin-2-yl)-oxazol-2-yl)-piperidin-1-yl)-methanone] | –
17 | < 1000 | O=C(c1ccnc(F)c1)N1CCC[C@H](c2nc(-c3ccccc3F)co2)C1 [Example 13, (S)-(3-(4-(2-Fluoro-phenyl)-oxazol-2-yl)-piperidin-1-yl)(2-fluoro-pyridin-4-yl)-methanone] | –
18 | < 1000 | O=C(c1ccc(F)cc1)N1CCC[C@H](c2nc(-c3ccccn3)co2)C1 [Example 8, (S)-(4-Fluoro-phenyl)(3-(4-(pyridin-2-yl)-oxazol-2-yl)-piperidin-1-yl)-methanone] | –
